In US20210316013A1, “HAEMATOPOIETIC STEM CELL-GENE THERAPY FOR WISKOTT-ALDRICH SYNDROME” (priority 2018, published 2021):

System: Jurkat cells
Assay: Titration of 6TG dosing window, Jurkat cell viability
Assay type: cell-based
Settings: 6TG 0.01-100 μM, viability after 2 days, cell counter TC20
Procedure: Jurkat cells were incubated in a 96-well plate with different concentrations of 6TG (0.01-100 μM). After 2 days, viability of the cells was measured with cell counter TC20. Optimal 6TG dose for Jurkat cells was estimated to be approx. 504. A nominal concentration of 2.5 μM 6TG was elected for subsequent chemo-selection experiments. The results are illustrated in FIG. 20A.

## Nc1nc2nc[nH]c2c(=S)[nH]1 [Candidate 6TG, 6-thioguanine]
  Optimal 6TG dose for Jurkat cells: approx. 504
